Results: the supplement of paper PMC11451515

Tested on: P12-Ichikawa
Assay: cell viability relative to DMSO control; higher = less cytotoxic
Settings: 48 h
Outline: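 Library compounds in DMSO were pin-dosed in an 11-point threefold series (47 μM to 0.79 nM) onto leukemia cells in 1536-well plates (5 μl). Plates held 500 cells/well of NOMO1 or SEM or 1000 cells/well of P12-Ichikawa, each adapted for at least four passages in each medium. Luminescence was read with CellTiter-Glo One after 48 h at 37°C. Viability means the per-plate percentage relative to DMSO wells, using cell-free wells as background.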

[1] = HPLM + 10% dialyzed FBS, 0.000781 µM
[2] = HPLM + 10% dialyzed FBS, 0.00234 µM
[3] = HPLM + 10% dialyzed FBS, 0.00702 µM
[4] = HPLM + 10% dialyzed FBS, 0.0211 µM
[5] = HPLM + 10% dialyzed FBS, 0.0632 µM
[6] = HPLM + 10% dialyzed FBS, 0.19 µM
[7] = HPLM + 10% dialyzed FBS, 0.569 µM
[8] = HPLM + 10% dialyzed FBS, 1.71 µM
[9] = HPLM + 10% dialyzed FBS, 5.12 µM
[10] = HPLM + 10% dialyzed FBS, 15.4 µM
[11] = HPLM + 10% dialyzed FBS, 46.1 µM
[12] = RPMI 5 mM glucose + 10% FBS, 0.000781 µM
[13] = RPMI 5 mM glucose + 10% FBS, 0.00234 µM
[14] = RPMI 5 mM glucose + 10% FBS, 0.00702 µM
[15] = RPMI 5 mM glucose + 10% FBS, 0.0211 µM
[16] = RPMI 5 mM glucose + 10% FBS, 0.0632 µM
[17] = RPMI 5 mM glucose + 10% FBS, 0.19 µM
[18] = RPMI 5 mM glucose + 10% FBS, 0.569 µM
[19] = RPMI 5 mM glucose + 10% FBS, 1.71 µM
[20] = RPMI 5 mM glucose + 10% FBS, 5.12 µM
[21] = RPMI 5 mM glucose + 10% FBS, 15.4 µM
[22] = RPMI 5 mM glucose + 10% FBS, 46.1 µM
[23] = RPMI 5 mM glucose + 10% dialyzed FBS, 0.000781 µM
[24] = RPMI 5 mM glucose + 10% dialyzed FBS, 0.00234 µM
[25] = RPMI 5 mM glucose + 10% dialyzed FBS, 0.00702 µM
[26] = RPMI 5 mM glucose + 10% dialyzed FBS, 0.0211 µM
[27] = RPMI 5 mM glucose + 10% dialyzed FBS, 0.0632 µM
[28] = RPMI 5 mM glucose + 10% dialyzed FBS, 0.19 µM
[29] = RPMI 5 mM glucose + 10% dialyzed FBS, 0.569 µM
[30] = RPMI 5 mM glucose + 10% dialyzed FBS, 1.71 µM
[31] = RPMI 5 mM glucose + 10% dialyzed FBS, 5.12 µM
[32] = RPMI 5 mM glucose + 10% dialyzed FBS, 15.4 µM
[33] = RPMI 5 mM glucose + 10% dialyzed FBS, 46.1 µM

Compound | cell viability [1] | cell viability [2] | cell viability [3] | cell viability [4] | cell viability [5] | cell viability [6] | cell viability [7] | cell viability [8] | cell viability [9] | cell viability [10] | cell viability [11] | cell viability [12] | cell viability [13] | cell viability [14] | cell viability [15] | cell viability [16] | cell viability [17] | cell viability [18] | cell viability [19] | cell viability [20] | cell viability [21] | cell viability [22] | cell viability [23] | cell viability [24] | cell viability [25] | cell viability [26] | cell viability [27] | cell viability [28] | cell viability [29] | cell viability [30] | cell viability [31] | cell viability [32] | cell viability [33]
CCC[C@H]1C[C@H](C(=O)N[C@@H]([C@@H]2O[C@@H](SC)[C@@H](O)[C@@H](O)[C@H]2O)[C@H](C)Cl)N(C)C1 | 103% | 117% | 115% | 120% | 119% | 124% | 123% | 124% | 125% | 118% | 127% | 105% | 113% | 112% | 121% | 132% | 131% | 137% | 119% | 130% | 130% | 134% | 113% | 122% | 115% | 115% | 128% | 124% | 126% | 119% | 130% | 122% | 121%
CN1C[C@H]2c3ccccc3Oc3ccc(Cl)cc3[C@@H]2C1 | 88.5% | 86.3% | 83.8% | 90.2% | 89.7% | 96.8% | 92.5% | 96% | 91.4% | 93% | 95.8% | 96.9% | 94.5% | 95.6% | 97.8% | 88.4% | 95.4% | 98.2% | 99% | 96.7% | 103% | 101% | 87.6% | 89.7% | 82.3% | 87.6% | 87.5% | 96.6% | 87% | 84.5% | 80% | 84.3% | 78.1%
COc1ccc(C(C)=O)c(O)c1 | 100% | 106% | 115% | 109% | 109% | 114% | 117% | 102% | 107% | 24% | 31% | 115% | 115% | 106% | 120% | 128% | 117% | 114% | 112% | 116% | 22% | 30.6% | 103% | 109% | 109% | 104% | 110% | 114% | 114% | 99.9% | 110% | 25.8% | 25.4%
CNC(=O)c1ccc(N2C(=S)N(c3ccc(C#N)c(C(F)(F)F)c3)C(=O)C23CCC3)cc1F | 86.5% | 92.3% | 101% | 9.68% | 108% | 101% | 97% | 103% | 103% | 107% | 102% | 88% | 86.8% | 101% | 13.1% | 94.9% | 98% | 102% | 99.6% | 99.3% | 103% | 106% | 75.4% | 87.7% | 88.6% | 24.7% | 97.7% | 96.6% | 92.7% | 91% | 97.8% | 96.7% | 98.5%
NC(=O)c1ccc(I)c([N+](=O)[O-])c1 | 117% | 126% | 124% | 115% | 130% | 139% | 133% | 134% | 132% | 128% | 125% | – | – | – | – | – | – | – | – | – | – | – | – | – | – | – | – | – | – | – | – | – | –
N#Cc1c(NC(=O)c2cccc3ccccc23)sc2c1CCCC2 | 121% | 122% | 126% | 123% | 136% | 132% | 82.4% | 21.6% | 18.2% | 28.2% | 27.4% | – | – | – | – | – | – | – | – | – | – | – | – | – | – | – | – | – | – | – | – | – | –
C[C@]12CCC(=O)C=C1CC[C@@H]1[C@@H]2CC[C@@]2(C)[C@H]1CC[C@]2(C)O | 105% | 110% | 105% | 91.5% | 104% | 107% | 109% | 104% | 102% | 89.6% | 86.4% | 94.7% | 93.3% | 105% | 79.6% | 104% | 102% | 104% | 94.9% | 97.9% | 92.1% | 79.8% | 94.6% | 101% | 100% | 80.5% | 94.8% | 100% | 91.7% | 106% | 97.5% | 87.7% | 88.1%
Cc1cn([C@@H]2O[C@H](CO)[C@@H](O)[C@@H]2F)c(=O)[nH]c1=O | 103% | 112% | 116% | 122% | 116% | 122% | 132% | 124% | 126% | 122% | 123% | 101% | 115% | 116% | 120% | 124% | 127% | 119% | 129% | 130% | 123% | 17.6% | 97% | 110% | 111% | 113% | 121% | 126% | 121% | 123% | 123% | 127% | 64.6%
CCOC(=O)C/1=C(O)/C(=O)N(CC2=CC=CC=C2)C1 | 114% | 114% | 114% | 112% | 111% | 113% | 109% | 109% | 99.1% | 99.8% | 100% | 116% | 121% | 115% | 119% | 128% | 120% | 106% | 122% | 114% | 106% | 99.5% | 107% | 109% | 123% | 111% | 113% | 111% | 120% | 106% | 114% | 107% | 99.2%
O=C(Nc1c(Cl)cncc1Cl)c1ccc(OC(F)F)c(OCC2CC2)c1 | 101% | 112% | 118% | 105% | 114% | 113% | 111% | 115% | 117% | 108% | 104% | 103% | 116% | 111% | 115% | 122% | 121% | 119% | 106% | 110% | 106% | 106% | 96.8% | 107% | 100% | 108% | 106% | 108% | 114% | 111% | 113% | 109% | 105%
CC(C)C[C@H](NC(=O)[C@H](CCc1ccccc1)NC(=O)CN1CCOCC1)C(=O)N[C@@H](Cc1ccccc1)C(=O)N[C@@H](CC(C)C)C(=O)[C@@]1(C)CO1 | 86.2% | 96.7% | 95.1% | 86.1% | 5.6% | 5.9% | 5.35% | 4.68% | 1.59% | -0.411% | -0.285% | 83.1% | 96.3% | 92.7% | 46.1% | 4.86% | 4.74% | 4.53% | 4.03% | 2.11% | -0.0452% | -0.307% | 78.8% | 94.4% | 91.2% | 54.1% | 5.27% | 4.96% | 4.93% | 3.8% | 1.93% | -0.204% | -0.46%
S=P(N1CC1)(N1CC1)N1CC1 | 110% | 106% | 113% | 107% | 112% | 105% | 108% | 97.4% | 88.5% | 99.4% | 85.3% | 98.3% | 99% | 106% | 102% | 99.8% | 102% | 108% | 104% | 104% | 94.9% | 88.2% | 99.6% | 108% | 103% | 91.7% | 101% | 101% | 96.2% | 93.1% | 86.9% | 89.9% | 76.3%
CN[C@@H]1[C@H](O)[C@H](NC)[C@H]2O[C@@]3(O)C(=O)C[C@@H](C)O[C@H]3O[C@@H]2[C@H]1O | 118% | 117% | 124% | 115% | 118% | 116% | 114% | 111% | 114% | 101% | 98.4% | 109% | 117% | 126% | 120% | 117% | 113% | 105% | 106% | 106% | 105% | 97.5% | 122% | 121% | 115% | 116% | 106% | 116% | 117% | 106% | 114% | 107% | 101%
COc1cc2ncnc(Nc3cc(Br)c(O)c(Br)c3)c2cc1OC | 98.7% | 103% | 106% | 101% | 112% | 110% | 109% | 107% | 106% | 108% | 96.5% | 92.3% | 104% | 107% | 114% | 109% | 113% | 117% | 118% | 99.7% | 106% | 79.4% | 95.8% | 104% | 108% | 109% | 111% | 114% | 114% | 118% | 105% | 109% | 94.9%
CNC[C@H](O)c1ccc(O)c(O)c1 | 96.9% | 101% | 94.8% | 94.6% | 102% | 93.9% | 90.2% | 90.9% | 91.7% | 85.7% | 85.8% | 102% | 97.3% | 88.6% | 99.3% | 97.9% | 94.9% | 91.7% | 89.5% | 93.5% | 89.6% | 89.9% | 87.9% | 92.6% | 91% | 87.3% | 90.6% | 92.3% | 81.9% | 85.1% | 82% | 78.9% | 78.2%
O=C(O)C1=NC(C(=O)O)CC(/C=C/N2c3cc(O)c(OC4OC(CO)C(O)C(O)C4O)cc3CC2C(=O)O)=C1 (centres undefined) | 104% | 107% | 104% | 96.9% | 98.5% | 104% | 106% | 102% | 96.8% | 98% | 98.4% | 97.2% | 110% | 106% | 99.1% | 95.8% | 89.9% | 90.8% | 106% | 96.5% | 96.8% | 97.4% | 101% | 99.2% | 106% | 102% | 106% | 104% | 93.2% | 99.5% | 100% | 91.9% | 90.9%
